# Values quoted from earlier work, collected in US20090148532A1, “Preparation of controlled release skeletal muscle relaxant dosage forms” (priority 2007, published 2009).
# Conditions: after oral administration
smiles,measurement,value
CN(C)CCC=C1c2ccccc2C=Cc2ccccc21 [Cyclobenzaprine],Elimination half-life,one to three
